Data taken from US9914730B2, “Azaquinazoline inhibitors of Atypical protein Kinase C” (Ignyta, Inc., priority 2012, dated 2018).

The compounds below were run against T1, full-length human PKCι (Homo sapiens, UniProt P41743) (assay: PKCι IC50 IMAP assay, full-length PKCι at 150 μM ATP). Details: read-out: IC50 in IMAP assay against full length PKCi at 150 μM ATP.
T1 construct: Recombinant, full-length human PKCι expressed in Sf21 insect cells is also commercially available; purchased; host or cells: Sf21 insect cells
T1 sequence (P41743 1-596): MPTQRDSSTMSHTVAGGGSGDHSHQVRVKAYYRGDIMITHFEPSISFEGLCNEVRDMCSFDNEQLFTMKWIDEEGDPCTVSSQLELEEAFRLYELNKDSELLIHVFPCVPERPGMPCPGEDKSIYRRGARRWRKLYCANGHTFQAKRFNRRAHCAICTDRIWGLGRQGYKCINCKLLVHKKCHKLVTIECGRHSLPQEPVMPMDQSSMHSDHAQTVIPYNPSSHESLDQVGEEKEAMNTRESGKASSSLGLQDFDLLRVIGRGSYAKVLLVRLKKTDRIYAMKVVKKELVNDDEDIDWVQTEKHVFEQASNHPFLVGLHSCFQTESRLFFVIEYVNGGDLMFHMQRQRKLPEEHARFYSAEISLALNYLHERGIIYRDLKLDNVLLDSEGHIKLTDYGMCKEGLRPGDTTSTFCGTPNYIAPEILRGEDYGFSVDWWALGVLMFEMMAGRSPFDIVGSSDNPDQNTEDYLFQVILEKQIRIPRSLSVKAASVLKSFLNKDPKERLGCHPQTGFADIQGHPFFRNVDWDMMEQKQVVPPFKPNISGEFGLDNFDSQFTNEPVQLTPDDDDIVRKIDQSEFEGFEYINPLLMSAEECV
Type: biochemical
Method in brief: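 Full-length hPKCι (Sf21) ~15 pM; 5FAM-peptide 100 nM; ATP 150 μM (5× KM^APP); tris pH7.5/MgCl2/EGTA/DTT/Triton, 4% DMSO; 60 min RT; IMAP stop, 2 h; FP 485/530 nm; IC50 from % inhibition curves.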

Row | Compound | IC50 [nM]
1 | Cc1noc(C)c1-c1nccc2c(NC[C@@H](N)Cc3ccccc3)nc(-c3ccncc3)nc12 [Example 112, N-[(2S)-2-amino-3-phenylpropyl]-8-(dimethyl-1,2-oxazol-4-yl)-2-(pyridin-4-yl)-pyrido[3,4-d]-pyrimidin-4-amine] | 10000 to 40000
2 | N[C@H](CNc1nc(-c2ccncc2)nc2c(-c3ccc4[nH]cnc4c3)nccc12)Cc1ccccc1 [Example 116, N-[(2S)-2-amino-3-phenylpropyl]-8-(1H-1,3-benzodiazol-5-yl)-2-(pyridin-4-yl)pyrido[3,4-d]pyrimidin-4-amine] | 1000 to 10000
3 | CCOc1cccc(-c2nccc3c(NC[C@@H](N)Cc4ccccc4)nc(-c4ccncc4)nc23)c1 [Example 117, N-[(2S)-2-amino-3-phenylpropyl]-8-(3-ethoxy-phenyl)-2-(pyridin-4-yl)-pyrido[3,4-d]-pyrimidin-4-amine] | 1000 to 10000
4 | Cc1ccccc1-c1nccc2c(NC[C@@H](N)Cc3ccccc3)nc(-c3ccncc3)nc12 [Example 118, N-[(2S)-2-amino-3-phenylpropyl]-8-(2-methyl-phenyl)-2-(pyridin-4-yl)-pyrido[3,4-d]-pyrimidin-4-amine] | 1000 to 10000
5 | Cc1cccc(-c2nccc3c(NC[C@@H](N)Cc4ccccc4)nc(-c4ccncc4)nc23)c1 [Example 119, N-[(2S)-2-amino-3-phenylpropyl]-8-(3-methyl-phenyl)-2-(pyridin-4-yl)-pyrido[3,4-d]-pyrimidin-4-amine] | 1000 to 10000
6 | N[C@H](CNc1nc(-c2ccncc2)nc2c(-c3cccc(-c4ccn[nH]4)c3)nccc12)Cc1ccccc1 [Example 120, N-[(2S)-2-amino-3-phenylpropyl]-8-[3-(1H-pyrazol-5-yl)phenyl]-2-(pyridin-4-yl)pyrido[3,4-d]pyrimidin-4-amine] | 1000 to 10000
7 | N[C@@H](CNc1nc(-c2ccncc2)nc2c(Nc3ccccc3)nccc12)Cc1ccccc1 [Example 123, N^4-((R)-2-Amino-3-phenyl-propyl)-N^8-phenyl-2-pyridin-4-yl-pyrido[3,4-d]pyrimidine-4,8-diamine] | 1000 to 10000
8 | N[C@H](CNc1nc(-c2ccncc2)nc2c(Nc3ncccn3)nccc12)Cc1ccccc1 [Example 124, 4-N-[(2S)-2-amino-3-phenylpropyl]-2-(pyridin-4-yl)-8-N-(pyrimidin-2-yl)pyrido[3,4-d]pyrimidine-4,8-diamine] | 1000 to 10000
9 | N[C@H](CNc1nc(-c2ccncc2)nc2c(Nc3cccc(Cl)c3)nccc12)Cc1ccccc1 [Example 125, 4-N-[(2S)-2-amino-3-phenylpropyl]-8-N-(3-chlorophenyl)-2-(pyridin-4-yl)pyrido[3,4-d]pyrimidine-4,8-diamine] | 1000 to 10000
10 | CN1CCN(c2nccc3c(NC[C@H](N)Cc4ccccc4)nc(-c4ccncc4)nc23)CC1 [Example 127, (R)—N^1-[8-(4-Methyl-piperazin-1-yl)-2-pyridin-4-yl-pyrido[3,4-d]pyrimidin-4-yl]-3-phenyl-propane-1,2-diamine] | 10000 to 40000
11 | N[C@@H](CNc1nc(-c2ccncc2)nc2c(Sc3ccccc3)nccc12)Cc1ccccc1 [Example 128, (R)-3-Phenyl-N^1-(8-phenylsulfanyl-2-pyridin-4-yl-pyrido[3,4-d]pyrimidin-4-yl)-propane-1,2-diamine] | 1000 to 10000
12 | CSc1nccc2c(NC[C@@H](N)Cc3ccccc3)nc(-c3ccncc3)nc12 [Example 130, N-[(2S)-2-amino-3-phenylpropyl]-8-(methylsulfanyl)-2-(pyridin-4-yl)pyrido[3,4-d]pyrimidin-4-amine] | 1000 to 10000
13 | CN(C)c1ncc(Cl)c2c(N3CCNCC3)nc(-c3ccncc3)nc12 [Example 142, 5-chloro-N,N-dimethyl-4-(piperazin-1-yl)-2-(pyridin-4-yl)pyrido[3,4-d]pyrimidin-8-amine] | 1000 to 10000
14 | COc1cncc2nc(-c3ccncc3)nc(N3CCCCC3)c12 [Example 151, 5-Methoxy-4-piperidin-1-yl-2-pyridin-4-yl-pyrido[3,4-d]pyrimidine] | 100 to 1000
15 | COc1cncc2nc(-c3ccncc3)nc(N3CCC(N)(C(N)=O)C3)c12 (stereo not shown) [Example 152, 3-Amino-1-(5-methoxy-2-pyridin-4-yl-pyrido[3,4-d]pyrimidin-4-yl)-pyrrolidine-3-carboxylic acid amide] | 1000 to 10000
16 | COc1cncc2nc(-c3ccncc3)nc(N3CCC(N)(C(=O)Nc4ccccc4)C3)c12 (stereo not shown) [Example 153, 3-Amino-1-(5-methoxy-2-pyridin-4-yl-pyrido[3,4-d]pyrimidin-4-yl)-pyrrolidine-3-carboxylic acid phenylamide] | 1000 to 10000

Results, then the compound that gave them:

Row | IC50 [nM] | Compound
17 | 100 to 1000 | Cc1ccc(-c2nccc3c(NC[C@@H](N)Cc4ccccc4)nc(-c4ccncc4)nc23)s1 [Example 111, N-[(2S)-2-amino-3-phenylpropyl]-8-(5-methyl-thiophen-2-yl)-2-(pyridin-4-yl)pyrido[3,4-d]pyrimidin-4-amine]
18 | 100 to 1000 | N[C@H](CNc1nc(-c2ccncc2)nc2c(-c3ccsc3)nccc12)Cc1ccccc1 [Example 114, N-[(2S)-2-amino-3-phenylpropyl]-2-(pyridin-4-yl)-8-(thiophen-3-yl)pyrido[3,4-d]pyrimidin-4-amine]
19 | < 100 | N[C@H](CNc1nc(-c2ccncc2)nc2c(-c3ccco3)nccc12)Cc1ccccc1 [Example 115, N-[(2S)-2-amino-3-phenylpropyl]-8-(furan-2-yl)-2-(pyridin-4-yl)pyrido[3,4-d]pyrimidin-4-amine]
20 | 100 to 1000 | NCc1ccc(-c2nccc3c(NC[C@@H](N)Cc4ccccc4)nc(-c4ccncc4)nc23)o1 [Example 121, N-[(2S)-2-amino-3-phenylpropyl]-8-[5-(amino-methyl)-furan-2-yl]-2-(pyridin-4-yl)pyrido[3,4-d]pyrimidin-4-amine]
21 | 100 to 1000 | N[C@@H](CNc1nc(-c2ccncc2)nc2c(-c3ccccn3)nccc12)Cc1ccccc1 [Example 122, (R)-3-Phenyl-N^1-(2-pyridin-4-yl-8-pyridin-2-yl-pyrido[3,4-d]pyrimidin-4-yl)-propane-1,2-diamine]
22 | 100 to 1000 | N[C@H](CNc1nc(-c2ccncc2)nc2c(Nc3nc[nH]n3)nccc12)Cc1ccccc1 [Example 126, 4-N-[(2S)-2-amino-3-phenylpropyl]-2-(pyridin-4-yl)-8-N-(1H-1,2,4-triazol-3-yl)pyrido[3,4-d]pyrimidine-4,8-diamine]
23 | 100 to 1000 | N[C@H](CNc1nc(-c2ccncc2)nc2c(Oc3ccccc3)nccc12)Cc1ccccc1 [Example 129, N-[(2S)-2-amino-3-phenylpropyl]-8-phenoxy-2-(pyridin-4-yl)pyrido[3,4-d]pyrimidin-4-amine]
24 | < 100 | Clc1cncc2nc(-c3ccncc3)nc(N3CCNCC3)c12 [Example 132, 5-Chloro-4-piperazin-1-yl-2-pyridin-4-yl-pyrido[3,4-d]pyrimidine]
25 | < 100 | Brc1cncc2nc(-c3ccncc3)nc(N3CCNCC3)c12 [Example 133, 1-[5-bromo-2-(pyridin-4-yl)pyrido[3,4-d]pyrimidin-4-yl]piperazine]
26 | < 100 | Clc1ncc(Cl)c2c(N3CCNCC3)nc(-c3ccncc3)nc12 [Example 134, 1-[5,8-dichloro-2-(pyridin-4-yl)pyrido[3,4-d]pyrimidin-4-yl]piperazine]
27 | < 100 | CCCCc1cncc2nc(-c3ccncc3)nc(N3CCNCC3)c12 [Example 135, 5-Butyl-4-piperazin-1-yl-2-pyridin-4-yl-pyrido[3,4-d]pyrimidine]
28 | < 100 | CCc1cncc2nc(-c3ccncc3)nc(N3CCNCC3)c12 [Example 136, 1-[5-ethyl-2-(pyridin-4-yl)pyrido[3,4-d]pyrimidin-4-yl]piperazine]
29 | < 100 | CCc1cncc2nc(-c3ccncc3)nc(NC[C@@H](N)Cc3ccccc3)c12 [Example 137, N-[(2S)-2-amino-3-phenylpropyl]-5-ethyl-2-(pyridin-4-yl)pyrido[3,4-d]pyrimidin-4-amine]
30 | < 100 | Cc1cncc2nc(-c3ccncc3)nc(N3CCNCC3)c12 [Example 138, 1-[5-methyl-2-(pyridin-4-yl)pyrido[3,4-d]pyrimidin-4-yl]piperazine]
31 | < 100 | c1cc(-c2nc(N3CCNCC3)c3c(C4CC4)cncc3n2)ccn1 [Example 139, 1-[5-cyclopropyl-2-(pyridin-4-yl)pyrido[3,4-d]pyrimidin-4-yl]piperazine]
32 | 100 to 1000 | c1ccc(COCc2cncc3nc(-c4ccncc4)nc(N4CCNCC4)c23)cc1 [Example 140, 1-{5-[(benzyloxy)methyl]-2-(pyridin-4-yl)pyrido[3,4-d]pyrimidin-4-yl}piperazine]
33 | 100 to 1000 | Clc1cnc(-c2cc[nH]n2)c2nc(-c3ccncc3)nc(N3CCNCC3)c12 [Example 141, 5-Chloro-4-piperazin-1-yl-8-(1H-pyrazol-3-yl)-2-pyridin-4-yl-pyrido[3,4d]pyrimidine]
34 | < 100 | C=C(C)c1cncc2nc(-c3ccncc3)nc(N3CCNCC3)c12 [Example 143, 5-Isopropenyl-4-piperazin-1-yl-2-pyridin-4-yl-pyrido[3,4-d]pyrimidine]
